The target in assay [1] is Bifunctional dihydrofolate reductase-thymidylate synthase (Plasmodium falciparum (isolate K1 / Thailand), UniProt P13922). The experiment in a line: Binding affinity towards wild-type dihydrofolate reductase of Plasmodium falciparum.
A short description of assay [2]: In vitro anti-plasmodial activity against Plasmodium falciparum dihydrofolate reductase wild type (TM4/8.2).
Assay [3] in a line: In vitro anti-plasmodial activity against Plasmodium falciparum dihydrofolate reductase N51I/C59R/S108N (W2).
Assay [4] in a line: In vitro anti-plasmodial activity against Plasmodium falciparum dihydrofolate reductase C59R/S108N (K1CB1) mutant.
Assay [5] in a line: In vitro anti-plasmodial activity against Plasmodium falciparum dihydrofolate reductase A16V/S108T (T9/94RC17) mutant.
Assay [6] in a line: In vitro anti-plasmodial activity against Plasmodium falciparum dihydrofolate reductase C59R+S108N/I164L (Csl-2) mutant.
Assay [7] is described as follows: In vitro anti-plasmodial activity against Plasmodium falciparum dihydrofolate reductase […]/C59R/S108N/I164L (V1/S) mutant.

Bifunctional dihydrofolate reductase-thymidylate synthase, sequence (P13922 whole entry): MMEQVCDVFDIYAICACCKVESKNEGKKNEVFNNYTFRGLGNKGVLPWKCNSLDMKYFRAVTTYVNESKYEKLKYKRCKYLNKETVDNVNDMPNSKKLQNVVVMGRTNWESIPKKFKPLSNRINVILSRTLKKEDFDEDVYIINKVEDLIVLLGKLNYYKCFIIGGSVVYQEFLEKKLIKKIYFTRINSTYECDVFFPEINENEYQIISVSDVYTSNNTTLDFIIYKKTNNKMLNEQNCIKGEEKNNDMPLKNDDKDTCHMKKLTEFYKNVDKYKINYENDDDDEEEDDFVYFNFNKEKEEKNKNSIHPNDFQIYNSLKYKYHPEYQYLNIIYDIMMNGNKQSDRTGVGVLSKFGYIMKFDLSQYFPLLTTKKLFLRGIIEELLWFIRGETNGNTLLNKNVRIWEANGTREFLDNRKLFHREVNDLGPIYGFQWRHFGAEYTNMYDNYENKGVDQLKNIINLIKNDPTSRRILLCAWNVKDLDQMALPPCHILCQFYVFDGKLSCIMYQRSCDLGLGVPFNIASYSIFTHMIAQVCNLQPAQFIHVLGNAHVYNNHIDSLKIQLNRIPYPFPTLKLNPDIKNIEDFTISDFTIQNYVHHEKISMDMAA

Take `NC1=NC(c2ccc(Oc3ccccc3)cc2)N(c2cccc(Cl)c2)C(N)=N1` (stereo not drawn) [1-(3-chlorophenyl)-6-(4-phenoxyphenyl)-1,6-dihydro-1,3,5-triazine-2,4-diamine]: in assay [1], the Ki was 0.7 nM. In addition, the IC50 in assay [2] was 650 nM; in assay [3], 740 nM; in assay [4] it was 3100 nM; in assay [5] it was 4 nM; in assay [6], 3300 nM; in assay [7], 3300 nM.

In the case of `NC1=NC(c2cccc(Oc3ccccc3)c2)N(c2cccc(Cl)c2)C(N)=N1` (stereo not drawn) [1-(3-chlorophenyl)-6-(3-phenoxyphenyl)-1,6-dihydro-1,3,5-triazine-2,4-diamine], in assay [1], the Ki was determined as 1.1 nM. Besides, the IC50 amounted to 2200 nM in assay [2]; 3500 nM in assay [3]; 2700 nM in assay [4]; 60 nM in assay [5]; 3400 nM in assay [6]; 3600 nM in assay [7].

`CCCCCCCC1N=C(N)N=C(N)N1c1cccc(Cl)c1` (stereo not drawn) [1-(3-Chloro-phenyl)-6-heptyl-1,6-dihydro-[1,3,5]triazine-2,4-diamine]: the Ki in assay [1] amounted to 2.7 nM. Moreover, the half-maximal inhibitory concentration (IC50) was determined as 40 nM in assay [2]; 330 nM in assay [3]; 260 nM in assay [4]; 4 nM in assay [5]; 140 nM in assay [6]; 2500 nM in assay [7].

For the compound `NC1=NC(c2cccc(OCCCOc3cc(Cl)c(Cl)cc3Cl)c2)N(c2cccc(Cl)c2)C(N)=N1` (stereo not drawn) [1-(3-chlorophenyl)-6-(3-(3-(2,4,5-trichlorophenoxy)propoxy)phenyl)-1,6-dihydro-1,3,5-triazine-2,4-diamine], in assay [1], the affinity, expressed as Ki, was 4 nM. For the same compound, the IC50 in assay [2] turned out to be 3000 nM; in assay [3], 3200 nM; in assay [4], 7400 nM; in assay [5] it was 370 nM; in assay [6], 5200 nM; in assay [7], 8600 nM.

(Values after BindingDB's records for doi:10.1021/jm030165t (National Center For Genetic Engineering and Biotechnology …, 2004).)
